Entries after “also recorded” stand apart in the source; their conditions may differ. Where two headings read alike, the source gives them in different places.
Columns and labels:
[1] = system: HIV-1 strain RF in C8166 cells; assay: Acute HIV-1 (RF) infection of C8166 cells: syncytial and p24 antigen assays; format: cell-based, HIV-1 (human C8166 cells)
Text: (§1) When evaluated in the human T cell line JM acutely infected with the GB8 virus, DIDS, H2 DIDS and SITS (Table I) suppressed virus-induced multinucleated giant cell formation (syncytia). […] We also examined the antiviral properties of these compounds in a second host-cell/virus system, i.e., the highly CD4+ C8166 cells infected with the Haitian strain of HIV-1, RF.
(§2) The cell lines used were the semi-mature human lymphoblastoid leukemia T cell line JM, the human T-lymphoblastoid C8166 cell line, the human cutaneous T cell lymphoma line H9 and, the human T cell transformed line MT-4. Stocks of HIV-1 strains RF and GB8 (kindly provided by Dr. Graham Farrar, Center for Applied Microbiological Research, Porton Dawn, England) were prepared from chronically infected H9 cells and acutely infected JM cells, respectively. Virus stocks consisted of cell-free growth medium (RPMI 1640 plus 10% fetal calf serum) containing freshly shed virus. Virus titres were determined by a standard plaque reduction assay.
Virus stocks (strains RF or GB8) were diluted into growth medium containing various concentrations of DIDS, H2 DIDS or SITS. The required number of cells were then immediately added and the virus allowed to absorb for 2 hours at 37° C. to give a multiplicity of infection (MOI) of 0.001 infectious units/cell. The virus-infected cells were pelleted, washed three times in phosphate buffered saline (PBS), and resuspended in fresh growth medium containing the appropriate concentrations of stilbene disulfonic acids. Cells were then distributed into 24-well culture plates (Falcon) and assayed as described below for virus infection. Alternatively, cells were first infected with HIV-1 (strains RF or GB8) for 2 hours at 37° C. at the above MOI. After extensive washing, cells were replated into fresh growth medium containing various concentrations of stilbene disulfonic acids. In the above experiments, syncytia were scored between 2 and 4 days postinfection (p.i.) in triplicate using an Olympus CK2 inverted microscope. The culture fluids were recovered between 3 and 5 days p.i., clarified by low speed centrifugation (2,000 rpm) for 5 minutes and the level of HIV-1 p24 core antigen in the supernatants was determined by p24 antigen ELISA (Coulter). The concentrations of stilbene disulfonic acids giving 50% inhibition of HIV-1 growth (IC50) were determined from the dose-response curves by linear regression analysis.

[2] = system: HIV-1 strain RF in MT-4 cells; assay: Growth of HIV-1 RF in MT-4 cells; format: cell-based, HIV-1 (human MT-4 cells)
Text: as §1, §2

[3] = system: virus-induced cell fusion (gp120-CD4 dependent); assay: Cell fusion after pretreatment of uninfected C8166 cells, washing and mixing with chronically infected H9 cells; format: cell-based, HIV-1; human H9 and C8166 cells; settings: 100 μg/ml; overnight pretreatment, washed; 6 hour observation
Method: In the next experiments, CD4+ C8166 cells were pretreated overnight with either DIDS (100 μg/ml), SITS (100 μg/ml) or drug-free medium. Unabsorbed compounds were removed by repeated washings and chronically infected H9 cells were then added. […] Thus, cell washing prior to mixing with the H9 cells oblated the protective effect observed above (FIG. 1, Panel E) when 500,000 MW dextran sulfate was continually present in the assay.
Pretreatment of CD4+ C8166 cells with DIDS blocks fusion with chronically infected H9 cells. In this experiment, C8166 cells were pretreated overight with various stilbene disulfonic acids or drug-free medium (fusion control). The cells were washed, incubated with chronically infected H9 cells and syncytia were photographed at 6 hours post-mixing. Pretreatment conditions were as follows: […]: 100 μg/ml SITS; FIG. 2B: drug-free medium; and FIG. 2C: 100 μg/ml DIDS.
In pretreatment experiments, CD4^+ C8166 cells were maintained in serum-free medium (RPMI 1640 plus human transferrin 50 μg/ml, bovine insulin 20 μg/ml, bovine serum albumin 2 mg/ml) and were exposed to compound by overnight incubation. Treated cells were washed twice in fresh serum-free medium and then cocultured with chronically infected H9 cells in serum-free medium. Otherwise, cell numbers, assay conditions and scoring of syncytia were as described above.
Protocol: C8166 cells were pretreated for 2.5 hours with either DIDS, SITS or H2 DIDS (at 500 and 250 μg/ml). The cells were then washed three times and mixed with H9 cells chronically infected with HIV-1. Cell fusion was quantified after 4 and 24 hours.

HSV 2 = assay: Plaque reduction assay, HSV 2; format: cell-based; settings: for activity at 0.1 µg/mL / activity at 1 µg/mL / activity at 10 µg/mL / activity at 100 µg/mL: read-out: Mean % VC (plaques)
Method: Protocol: Plaque reduction assay. Treatment after adsorption during incubation.

[4] = Human immunodeficiency virus 1, RF strain in C8166 cells, read-out: P24 Antigen % Virus Control (values in parenthesis)

SMILES	activity at 50 µg/mL [1, 4]	activity at 100 µg/mL [1, 4]	activity at 200 µg/mL [1, 4]	growth of RF in MT-4 cells / antiviral activity [2]	syncytia / fusion after pretreatment [3]	Plaque counts (HSV 2; 0.1 μg/ml, first count)	Plaque counts (HSV 2; 0.1 μg/ml, second count)	Plaque counts (HSV 2; 1 μg/ml, first count)	Plaque counts (HSV 2; 1 μg/ml, second count)	Plaque counts (HSV 2; 1 μg/ml, third count)	Plaque counts (HSV 2; 10 μg/ml, first count)	Plaque counts (HSV 2; 10 μg/ml, second count)	Plaque counts (HSV 2; 10 μg/ml, third count)	Plaque counts (HSV 2; 100 μg/ml, first count)	Plaque counts (HSV 2; 100 μg/ml, second count)	Plaque counts (HSV 2; 100 μg/ml, third count)	activity at 0.1 µg/mL (HSV 2)	activity at 1 µg/mL (HSV 2)	activity at 10 µg/mL (HSV 2)	activity at 100 µg/mL (HSV 2)	also measured
O=S(=O)(O)c1cc(N=C=S)ccc1C=Cc1ccc(N=C=S)cc1S(=O)(=O)O [DIDS, 4,4'-diisothiocyanatostilbene-2,2'-disulfonic acid]	83%	33%	4.8%	blocked the growth of RF	remained syncytia-free; also recorded: blocks fusion	37	40	31	33	39	25	25	25	0	0	0					HIV-1 infection ([1]; C8166 cells infected with RF): blocked HIV-1 infection; activity at 25 µg/mL ([1]; Human immunodeficiency virus 1, 25 µg/mL, RF strain in C8166 cells, read-out: P24 Antigen % Virus Control (values in parenthesis)): 100%; activity at 0.1 µg/mL (HSV 2; 0.1 μg/ml): 68%; activity at 1 µg/mL (HSV 2; 1 μg/ml): 61%; activity at 10 µg/mL (HSV 2; 10 μg/ml): 44%; activity at 100 µg/mL (HSV 2; 100 μg/ml): 0%
O=S(=O)(O)c1cc(N=C=S)ccc1CCc1ccc(N=C=S)cc1S(=O)(=O)O [H2 DIDS, 4,4'-diisothiocyanatodihydrostilbene-2,2'-disulfonic acid]	> 100%	59%	2.5%			35	35	23	31	24	26	19	21	0	0	0	63%	46%	43%	0%	
CC(=O)Nc1ccc(C=Cc2ccc(N=C=S)cc2S(=O)(=O)O)c(S(=O)(=O)O)c1 [SITS, 4-acetamido-4'-isothiocyanatostilbene-2,2'-disulfonic acid]	> 100%	> 100%	> 100%	weak antiviral activity	failed to block syncytia	34	26	28	25	23	25	25	24	16	13		> 100%	100%	100%	63%	activity in syncytial and p24 antigen assays ([1]; 100 μg/ml, C8166 cells infected with RF): inactive

Reference: patent publication US5494932A, “Sulfonic stilbene derivatives in the treatment of viral disease” (Merrell Dow Pharmaceuticals Inc., priority 1991, dated 1996)
